{"source": "patent US20110269812A1", "about": "“NOVEL BENZYLIDENE-INDOLINONE AND THEIR MEDICAL AND DIAGNOSTIC USES” (Agency for Science, Technology and Research, priority 2008, published 2011)", "key": {"Hepa1c1c7 cells": {"system": "Hepa1c1c7 cells", "assay": "MTT growth inhibition / cytotoxicity on Hepa1c1c7 cells", "format": "cell-based, murine", "conditions": "Mus musculus, Hepa-1c1c7, 48 h, highest concentration tested 25 μM", "method": "(§1) The antiproliferative activity of the compounds according to the invention was determined by the MTT assay on the following cell lines: MCF7 (human breast cancer cell line), HCT116 (human colon cancer cell line), and CCL186 (normal human diploid embryonic lung fibroblast). […] MCF7 and CCL186 cells were cultured in Eagle's Minimum Essential Medium (EMEM) with 1 mM sodium pyruvate, 1.5 g/L sodium bicarbonate, 2 mM L-glutamine supplemented with 10% FBS and 0.01% antibiotics. HCT116 cells were cultured in McCoy's 5A Medium with 2.2 g/L sodium bicarbonate supplemented with […] and 0.01% antibiotics. Cells were plated at the following densities: 10000 cells/well (MCF7), 4000 cells/well (HCT116), 5000 cells/well (CCL186). They were grown for 24 h in a 96-well plate, with 100 μl of corresponding medium in each well. The test compounds were prepared in DMSO and diluted to a series of concentrations with medium. Not more than 1% DMSO (final concentration) was present in each well. The test compounds were incubated with the cells for 72 h, after which 100 μl MTT solution (0.5 mg/ml in 1× PBS) was added for 3 h and the cells lysed to release the formazan product. The latter was dissolved in DMSO (150 μl) and absorbance determined within 30 min at 590 nm on a microtitre plate reader. Cell survival was given by the expression:\n(§2) Cell survival (%)=[(Acells+test compound−Ablank)/(Auntreated cells−Ablank)]×100\n(§3) where A is the absorbance of formazan measured at 590 nm in the test (Acells+test compound), control (Auntreated cells) or blank (Ablank) wells. Each concentration of test compound was evaluated on 3 separate occasions. […] The MTT assay was also carried out on Hepa1c1c7 cells for the purpose of determining cytotoxicity of test compounds. The same procedure was adopted except that the incubation period of compound with cells was 48 h, instead of 72 h."}, "[1]": {"system": "MCF7 (human breast cancer cell line)", "assay": "Antiproliferative MTT assay, MCF7", "format": "cell-based", "conditions": "72 h incubation, mean ± SD, n = 3, read-out: IC50 MCF-7", "method": "as §1, §2, §3\n(§4) The compounds were initially screened at a fixed concentration of 10 μM on the human cancer cell lines HCT116 and MCF7 cells."}, "[2]": {"system": "HCT116 (human colon cancer cell line)", "assay": "Antiproliferative MTT assay, HCT116", "format": "cell-based", "conditions": "72 h incubation, mean ± SD", "method": "as §1, §2, §3, §4"}, "[3]": {"system": "CCL186 (normal human diploid embryonic lung fibroblast)", "assay": "Antiproliferative MTT assay, CCL186", "format": "cell-based", "conditions": "for IC50: Homo sapiens, CCL186, MTT, 72 h incubation, mean ± SD, n = 3, read-out: IC50 CCL-186; for selectivity ratio: IC50 CCL186/IC50 MCF7 or IC50 CCL186/IC50 HCT116: normal vs cancer cell line", "method": "as §1, §2, §3"}, "NQO1": {"system": "NQO1", "assay": "Induction of NQO1 (QR) activity in Hepa1c1c7 cells"}, "SK-Hep1": {"system": "SK-Hep1", "assay": "Cell Titer-Glo viability, SK-Hep1", "format": "cell-based", "conditions": "Homo sapiens", "method": "The efficacy of compound 47 against HCC proliferation was tested on a wider panel of HCC cell lines: Hep3B ([…]), Hs817T (▪), PLC/PRF/5 (▴) and SK-Hep 1 (▾), as determined by Cell Titer-Glo assay.\nCells were plated at 5000-7000 cells/per well and incubated for 24 h before treatment. […] Cell Titer-Glo (Promega, Madison, Wis.) assay was performed according to manufacturer's instruction with luminescence detected on SpectraMax M5 (Molecular Devices, Sunnyvale, Calif.). Data was expressed as percentage of viability vs. vehicle-treated controls.\nAccordingly, Compound 47 was screened against a larger panel of 4 additional HCC cell lines."}, "[4]": {"system": "phospho-Erk, phospho-Akt, PCNA, cyclin D1, cleaved PARP, Bax, Bcl-xL", "assay": "Immunoblot of signalling, cell cycling and apoptosis markers in HuH7 or HepG2", "format": "cell-based, human", "conditions": "HuH7 or HepG2, 0, 1, 5 or 10 μM, 24 h", "method": "HuH7 or HepG2 cells were treated with increasing concentration of Compound 47 (0, 1, 5 or 10 μM) for 24 h. Cell lysates were harvested and immunoblotted against cleaved PARP, phospho-Erk, phospho-Akt, PCNA, cyclin D1, Bax and Bcl-xL, with HSP60 as loading control.\nProtein concentrations were assayed by BCA method (Pierce, Rockford, Ill.). Samples were resolved using 6-10% SDS-PAGE and transferred to nitrocellulose or PVDF membranes by tank transfer. Immunodetection was by chemiluminescence (SuperSignal, Pierce) using specific antibodies diluted in PBS with 0.05% (v/v) Tween 20 and 5% (w/v) powdered milk or BSA. Anti-phospho-IGF-1R, anti-phospho-EphA2, anti-phospho-Erk, anti-phospho-Akt, anti-Bax, anti-BCL-xL were from Cell Signaling Technology (Beverly, Mass.); anti-PCNA and anti-HSP60 from Santa Cruz Biotechnology (Santa Cruz, Calif.); anti-cyclin-D1 from BD Pharmingen (San Jose, Calif.). Secondary antibodies were anti-mouse and anti-rabbit HRP-conjugated antibodies (Pierce).\nNext, the mechanism of Compound 47's anti-proliferative effects was investigated. […] However, there was little effect on the mitochondrial apoptotic players Bax and BCL-xL."}, "EphA2": {"target": "T1, EphA2 (Homo sapiens, UniProt P29317)", "T1 construct": "we examined the constitutively phosphorylated IGF-1R, EphA2 and Tyro3; endogenous in cells; host or cells: HuH7", "T1 sequence (P29317 24-976)": "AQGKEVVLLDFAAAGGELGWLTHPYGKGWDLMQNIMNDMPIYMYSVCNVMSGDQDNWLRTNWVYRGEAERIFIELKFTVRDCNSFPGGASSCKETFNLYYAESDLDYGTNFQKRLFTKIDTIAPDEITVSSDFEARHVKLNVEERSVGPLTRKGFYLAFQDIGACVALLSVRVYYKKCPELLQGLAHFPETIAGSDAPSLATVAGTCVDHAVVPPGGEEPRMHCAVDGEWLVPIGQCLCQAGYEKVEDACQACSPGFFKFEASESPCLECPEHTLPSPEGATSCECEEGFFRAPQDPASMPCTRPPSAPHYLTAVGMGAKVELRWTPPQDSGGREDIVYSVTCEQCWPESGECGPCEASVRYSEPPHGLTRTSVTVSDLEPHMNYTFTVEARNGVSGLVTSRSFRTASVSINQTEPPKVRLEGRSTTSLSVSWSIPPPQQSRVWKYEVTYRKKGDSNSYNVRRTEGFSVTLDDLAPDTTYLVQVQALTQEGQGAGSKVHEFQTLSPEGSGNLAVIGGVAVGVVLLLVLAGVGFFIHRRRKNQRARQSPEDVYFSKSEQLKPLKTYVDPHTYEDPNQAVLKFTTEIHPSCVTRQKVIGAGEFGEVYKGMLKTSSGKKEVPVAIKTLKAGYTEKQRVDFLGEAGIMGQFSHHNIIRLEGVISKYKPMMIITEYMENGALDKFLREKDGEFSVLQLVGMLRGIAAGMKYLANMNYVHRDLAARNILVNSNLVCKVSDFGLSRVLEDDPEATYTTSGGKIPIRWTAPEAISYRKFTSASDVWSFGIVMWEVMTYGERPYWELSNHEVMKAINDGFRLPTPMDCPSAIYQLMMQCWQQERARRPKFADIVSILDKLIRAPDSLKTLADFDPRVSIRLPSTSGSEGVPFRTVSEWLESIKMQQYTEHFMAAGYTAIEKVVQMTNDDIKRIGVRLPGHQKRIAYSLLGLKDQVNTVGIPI", "assay": "Human phospho-RTK array, HuH7: EphA2", "format": "cell-based", "conditions": "24 h, untreated 0.07", "method": "(§5) Kinase phosphorylation changes were determined with human phospho-RTK array.\n(§6) Cells harvesting, hybridization with RTK array and incubation with anti-phosphotyrosine were performed according to manufacturer's instruction. Imaging and quantification of the spots intensities was with Fujifilm LAS-3000 (Tokyo, Japan). Average signal of the duplicate spots for each RTK was determined."}, "Ron": {"target": "T2, Ron (Homo sapiens, UniProt Q04912)", "T2 construct": "endogenous in cells; host or cells: HuH7", "T2 sequence (Q04912 25-1400)": "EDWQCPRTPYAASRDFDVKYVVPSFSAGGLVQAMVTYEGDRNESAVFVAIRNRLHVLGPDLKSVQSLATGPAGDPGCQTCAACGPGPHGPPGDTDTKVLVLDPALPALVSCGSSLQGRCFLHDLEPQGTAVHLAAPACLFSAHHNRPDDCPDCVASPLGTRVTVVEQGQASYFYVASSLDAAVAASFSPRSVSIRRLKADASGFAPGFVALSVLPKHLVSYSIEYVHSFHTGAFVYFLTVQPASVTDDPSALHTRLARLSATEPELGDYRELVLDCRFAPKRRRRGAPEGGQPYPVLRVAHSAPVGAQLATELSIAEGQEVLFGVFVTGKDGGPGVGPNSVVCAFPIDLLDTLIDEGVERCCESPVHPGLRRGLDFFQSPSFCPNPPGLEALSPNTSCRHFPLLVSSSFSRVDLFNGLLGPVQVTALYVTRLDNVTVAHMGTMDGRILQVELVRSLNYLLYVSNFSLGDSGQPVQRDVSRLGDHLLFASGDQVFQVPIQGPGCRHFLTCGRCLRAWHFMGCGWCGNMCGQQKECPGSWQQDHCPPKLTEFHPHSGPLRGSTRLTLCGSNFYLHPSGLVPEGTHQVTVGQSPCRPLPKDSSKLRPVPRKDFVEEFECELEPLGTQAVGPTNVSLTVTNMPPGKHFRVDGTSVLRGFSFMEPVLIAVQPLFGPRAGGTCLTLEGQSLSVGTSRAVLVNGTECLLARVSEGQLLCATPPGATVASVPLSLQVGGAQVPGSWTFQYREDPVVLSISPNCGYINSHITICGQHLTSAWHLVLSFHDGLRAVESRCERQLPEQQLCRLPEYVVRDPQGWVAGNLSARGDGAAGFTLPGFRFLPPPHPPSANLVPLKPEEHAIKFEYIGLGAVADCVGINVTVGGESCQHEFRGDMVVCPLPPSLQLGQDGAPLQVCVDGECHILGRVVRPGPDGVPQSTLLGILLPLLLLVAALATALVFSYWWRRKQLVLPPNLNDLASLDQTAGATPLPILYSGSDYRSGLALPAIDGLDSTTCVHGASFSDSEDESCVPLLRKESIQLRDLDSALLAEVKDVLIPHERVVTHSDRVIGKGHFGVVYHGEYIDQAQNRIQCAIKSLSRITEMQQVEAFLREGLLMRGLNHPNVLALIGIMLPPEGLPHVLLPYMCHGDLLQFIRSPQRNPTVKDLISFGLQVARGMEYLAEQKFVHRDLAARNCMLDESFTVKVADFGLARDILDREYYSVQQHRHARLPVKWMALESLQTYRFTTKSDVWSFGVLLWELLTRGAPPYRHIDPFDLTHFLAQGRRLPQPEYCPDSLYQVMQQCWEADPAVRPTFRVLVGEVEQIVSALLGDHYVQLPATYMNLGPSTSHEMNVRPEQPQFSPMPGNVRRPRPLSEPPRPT", "assay": "Human phospho-RTK array, HuH7: Ron", "format": "cell-based", "conditions": "24 h, untreated 0.04", "method": "as §5, §6"}, "[5]": {"conditions": "Homo sapiens, HCT-116, 72 h, n = 3"}}, "note": "Read-outs that look alike come from different tables or passages of the source."}
{"compound": "COc1cccc(/C=C2/C(=O)Nc3cc(OC)ccc32)c1", "note": "[Compound 42, (E)-6-Methoxy-3-(3-methoxybenzylidene)indolin-2-one]", "values": [{"measurement": "IC50", "setting": "Hepa1c1c7 cells", "value": 9.8, "unit": "µM"}, {"measurement": "IC50", "setting": "[1]", "value": "1.2 ± 0.4", "unit": "µM"}, {"measurement": "IC50", "setting": "[2]; n = 3, read-out: IC50 HCT-116", "value": "1.3 ± 0.4", "unit": "µM"}, {"measurement": "IC50", "setting": "[3]", "value": "1.8 ± 0.2", "unit": "µM"}, {"measurement": "melting point", "value": "161 to 163", "unit": "°C"}, {"measurement": "NQO1 induction ratio", "setting": "NQO1; 0.5 μM, read off from plot", "value": 3.08}, {"measurement": "NQO1/CYP1A1 Quotient", "setting": "NQO1; both ratios at 0.5 μM", "value": 2.72}]}
{"compound": "COc1ccc2c(c1)NC(=O)/C2=C/c1ccc(OC)c(O)c1", "note": "[Compound 45, (E)-3-(3-Hydroxy-4-methoxybenzylidene)-6-methoxyindolin-2-one]", "values": [{"measurement": "IC50", "setting": "Hepa1c1c7 cells", "value": 9.8, "unit": "µM"}, {"measurement": "IC50", "setting": "[1]", "value": "3.7 ± 0.3", "unit": "µM"}, {"measurement": "IC50", "setting": "[2]; n = 3, read-out: IC50 HCT-116", "value": "7.8 ± 0.9", "unit": "µM"}, {"measurement": "IC50", "setting": "[2]; [5]", "value": "< 10", "unit": "µM"}, {"measurement": "IC50", "setting": "[3]", "value": "11.3 ± 0.4", "unit": "µM"}, {"measurement": "melting point", "value": "184 to 186", "unit": "°C"}, {"measurement": "NQO1 induction ratio", "setting": "NQO1; 1 μM, read off from plot of degree of induction versus concentration", "value": 4.34}, {"measurement": "NQO1/CYP1A1 Quotient", "setting": "NQO1; both ratios at 1 μM", "value": 4.13}]}
{"compound": "O=C1Nc2cc(F)ccc2/C1=C\\c1cccc(C(F)(F)F)c1", "note": "[Compound 46, (E)-6-Fluoro-3-(3-(trifluoromethyl)benzylidene)indolin-2-one]", "values": [{"measurement": "IC50", "setting": "Hepa1c1c7 cells", "value": 2.2, "unit": "µM"}, {"measurement": "IC50", "setting": "[1]", "value": "8.4 ± 0.3", "unit": "µM"}, {"measurement": "IC50", "setting": "[1]; Homo sapiens, MCF7, 72 h", "value": "< 10", "unit": "µM"}, {"measurement": "IC50", "setting": "[2]; n = 3, read-out: IC50 HCT-116", "value": "8.9 ± 0.3", "unit": "µM"}, {"measurement": "IC50", "setting": "[2]; [5]", "value": "< 10", "unit": "µM"}, {"measurement": "IC50", "setting": "[3]", "value": "7.5 ± 0.7", "unit": "µM"}, {"measurement": "selectivity ratio: IC50 CCL186/IC50 MCF7 or IC50 CCL186/IC50 HCT116", "setting": "[3]", "value": "~1"}, {"measurement": "melting point", "value": "132 to 135", "unit": "°C"}, {"measurement": "NQO1 induction ratio", "setting": "NQO1; 0.05 μM, read off from plot", "value": 3.31}, {"measurement": "NQO1/CYP1A1 Quotient", "setting": "NQO1; both ratios at 0.05 μM", "value": 2.69}]}
{"compound": "O=C1Nc2cc(Cl)ccc2/C1=C\\c1cccc(C(F)(F)F)c1", "note": "[Compound 47, (E)-6-Chloro-3-(3-(trifluoromethyl)benzylidene)indolin-2-one]", "values": [{"measurement": "IC50", "setting": "Hepa1c1c7 cells", "value": 1.1, "unit": "µM"}, {"measurement": "IC50", "setting": "[1]", "value": "3.8 ± 0.3", "unit": "µM"}, {"measurement": "IC50", "setting": "[2]; n = 3, read-out: IC50 HCT-116", "value": "7.5 ± 0.4", "unit": "µM"}, {"measurement": "IC50", "setting": "[2]; [5]", "value": "< 10", "unit": "µM"}, {"measurement": "IC50", "setting": "[3]", "value": "6.6 ± 0.5", "unit": "µM"}, {"measurement": "selectivity ratio: IC50 CCL186/IC50 MCF7 or IC50 CCL186/IC50 HCT116", "setting": "[3]", "value": "~1"}, {"measurement": "IC50", "setting": "SK-Hep1", "value": "> 10", "unit": "µM"}, {"measurement": "Bax and BCL-xL (mitochondrial apoptotic players)", "setting": "[4]", "value": "little effect"}, {"measurement": "Erk and Akt phosphorylation", "setting": "[4]", "value": "dose-dependent inhibition"}, {"measurement": "cleaved PARP (apoptotic marker)", "setting": "[4]", "value": "confirmed the participation of pro-apoptotic mechanism"}, {"measurement": "cyclin-D1 and PCNA expression (cell cycling markers)", "setting": "[4]", "value": "corresponding reduction"}, {"measurement": "EphA2 Phosphorylation", "setting": "EphA2; serum starved HuH7, 1 μM", "value": 0.09, "unit": "Arbitrary units"}, {"measurement": "EphA2 Phosphorylation", "setting": "EphA2; serum starved HuH7, 5 μM", "value": 0.05, "unit": "Arbitrary units"}, {"measurement": "EphA2 Phosphorylation", "setting": "EphA2; serum starved HuH7, 10 μM", "value": 0.02, "unit": "Arbitrary units"}, {"measurement": "Ron Phosphorylation", "setting": "Ron; serum starved HuH7, 1 μM", "value": 0.06, "unit": "Arbitrary units"}, {"measurement": "Ron Phosphorylation", "setting": "Ron; serum starved HuH7, 5 μM", "value": 0.05, "unit": "Arbitrary units"}, {"measurement": "Ron Phosphorylation", "setting": "Ron; serum starved HuH7, 10 μM", "value": 0.03, "unit": "Arbitrary units"}, {"measurement": "melting point", "value": "204 to 207", "unit": "°C"}, {"measurement": "NQO1 induction ratio", "setting": "NQO1; 0.05 μM, read off from plot", "value": 5.20}, {"measurement": "NQO1/CYP1A1 Quotient", "setting": "NQO1; both ratios at 0.05 μM", "value": 2.17}]}
{"compound": "COc1ccc2c(c1)NC(=O)/C2=C/c1cccc(C(F)(F)F)c1", "note": "[Compound 48, (E)-6-Methoxy-3-(3-(trifluoromethyl)benzylidene)indolin-2-one]", "values": [{"measurement": "IC50", "setting": "Hepa1c1c7 cells", "value": 2.6, "unit": "µM"}, {"measurement": "IC50", "setting": "[1]", "value": "1.9 ± 0.5", "unit": "µM"}, {"measurement": "IC50", "setting": "[2]; n = 3, read-out: IC50 HCT-116", "value": "3.8 ± 0.6", "unit": "µM"}, {"measurement": "IC50", "setting": "[3]", "value": "5.4 ± 0.3", "unit": "µM"}, {"measurement": "melting point", "value": "157 to 160", "unit": "°C"}, {"measurement": "NQO1 induction ratio", "setting": "NQO1; 0.5 μM, read off from plot", "value": 4.22}, {"measurement": "NQO1/CYP1A1 Quotient", "setting": "NQO1; both ratios at 0.5 μM", "value": 3.10}]}
